The record followed here is patent publication US8916702B2 (priority 2012, dated 2014).

pEC50: −log10 of the molar value. Read-outs that look alike come from different tables or passages of the source.

The subject of this test is HCV pseudoparticles (genotype 1a HCV E1 and E2 envelope, H77C isolate). The experiment in a line: microbe, parasite or virus in culture. It is filed as cell-based. Particulars: Hepatitis C virus.
The mark [1] stands for this setting: Huh-7, read-out: Activity (EC50 class), HCV pseudoparticles (genotype 1a, H77C) in Huh7 cells, EC50 expressed as class A/B.
Setting [2] is: Huh-7, 48 h, read-out: Activity (EC50 class), HCV pseudoparticles, Huh7 cells, luciferase 2 days after infection, average of duplicates.
Where [3] appears, read: Huh-7, 48 h, read-out: Activity (EC50 class), HCV pseudoparticle infection of Huh7 cells, luciferase 2 days after infection, EC50 expressed as class A/B.
Where [4] appears, read: Huh-7, 48 h, HCV pseudoparticle infection of Huh7 cells, luciferase 2 days after infection, average of duplicates.

Turning to `O=C(Nc1nccs1)C(=O)N1CCCC(CNC(=O)c2ccc(Nc3nc(NC4(c5ccc(Cl)cc5)CC4)nc(OCC(F)(F)F)n3)cc2)C1` (stereo not shown) [Compound 3487], under setting [1], the pEC50 – broadly, the negative decadic logarithm of the EC50, by convention in mol/L – is 8.00 to 11.00.
Turning to `O=C(NC/C(=N/C(=O)c1ccc(Nc2nc(NC3(c4ccc(Cl)cc4)CC3)nc(OCC(F)(F)F)n2)cc1)C(=O)O)C(=O)Nc1ccc(Oc2ccccc2)cc1` [Compound 3150], the pEC50 under setting [1] was 8.00 to 11.00.
In the case of `COC(=O)[C@H](CCNC(=O)C(=O)Nc1ccc(-c2csc(N3CCOCC3)n2)cc1)NC(=O)c1ccc(Nc2nc(NC3(c4ccc(Cl)cc4)CC3)nc(OCC(F)(F)F)n2)cc1` [Compound 3318], under setting [1], the pEC50 was 8.00 to 11.00.
As for `O=C(NCC[C@H](NC(=O)c1ccc(Nc2nc(NC3(c4ccc(Cl)cc4)CC3)nc(OCC(F)(F)F)n2)cc1)C(=O)O)C(=O)Nc1cccc(C(=O)Nc2ccccc2)c1` [Compound 3617], the pEC50 under setting [2] is 8.00 to 11.00.
In the case of `COC(=O)[C@H](CCNC(=O)C(=O)NCc1cc(F)ccc1F)NC(=O)c1ccc(Nc2nc(NC3(c4ccc(Cl)cc4)CC3)nc(OCC(F)(F)F)n2)cc1` [Compound 1157], the pEC50 under setting [3] is 8.00 to 11.00.
As for `CC(C)c1ccc(COc2nc(Nc3ccc(C(=O)NCC(C)(C)CNC(=O)C(=O)Nc4ccc(F)cc4F)c(F)c3)nc(NC3(c4ccc(Cl)cc4)CC3)n2)cc1` [Compound 3835, N^1-(3-(4-((4-((1-(4-chlorophenyl)cyclopropyl)amino)-6-((4-isopropylbenzyl)oxy)-1,3,5-triazin-2-yl)amino)-2-fluorobenzamido)-2,2-dimethylpropyl)-N^2-(2,4-difluorophenyl)oxalamide], the pEC50 under setting [2] was 8.00 to 11.00.
Consider `COC(=O)[C@H](CNC(=O)C(=O)Nc1ccc(OCc2ccccc2)cc1)NC(=O)c1ccc(Nc2nc(NC3(c4ccc(Cl)cc4)CC3)nc(OCC(F)(F)F)n2)cc1` [Compound 3090], for which the pEC50 under setting [1] is 8.00 to 11.00.
`COC(=O)[C@H](CCNC(=O)C(=O)N[C@@H]1C[C@@H]2CC[C@H]1C2)NC(=O)c1ccc(Nc2nc(NC3(c4ccc(Cl)cc4)CC3)nc(OCC(F)(F)F)n2)cc1` [Compound 1102]: the pEC50 under setting [3] was 8.00 to 11.00.
`CC(C)(CNC(=O)C(=O)Nc1nc2ccccc2s1)CNC(=O)c1ccc(Nc2nc(NC3(c4ccc(Cl)cc4)CC3)nc(OCC(F)(F)F)n2)cc1` [Compound 3376]: under setting [1], the pEC50 was 8.00 to 11.00.
Regarding `COC(=O)[C@H](CNC(=O)C(=O)Nc1ccc(N)nc1)NC(=O)c1ccc(Nc2nc(NC3(c4ccc(Cl)cc4)CC3)nc(OCC(F)(F)F)n2)cc1` [Compound 3705], the pEC50 under setting [2] is 8.00 to 11.00.
Take `O=C(NCCc1cccc(F)c1)C(=O)NCC[C@H](NC(=O)c1ccc(Nc2nc(NC3(c4ccc(Cl)cc4)CC3)nc(OCC(F)(F)F)n2)cc1)C(=O)O` [Compound 1333]: under setting [3], the pEC50 was 8.00 to 11.00.
For the compound `O=C(NCCCCNC(=O)c1ccc(Nc2nc(NC3(c4ccc(Cl)cc4)CC3)nc(OCC(F)(F)F)n2)cc1)C(=O)Nc1ccc(F)cc1` [Compound 3395], the pEC50 under setting [1] is 8.00 to 11.00.
Same read-out and setting: for `O=C(NC/C(=N/C(=O)c1ccc(Nc2nc(NC3(c4ccc(Cl)cc4)CC3)nc(OCC(F)(F)F)n2)cc1)C(=O)O)C(=O)Nc1ccc(-n2cncn2)cc1` [Compound 3168] the value was 8.00 to 11.00.
Turning to `CC(C)(CNC(=O)C(=O)Nc1ccc2c(c1)CCCC2=O)CNC(=O)c1ccc(Nc2nc(NC3(c4ccc(Cl)cc4)CC3)nc(OCC(F)(F)F)n2)cc1` [Compound 3263], the pEC50 under setting [1] is 8.00 to 11.00.
In the case of `COC(=O)[C@H](CCNC(=O)C(=O)Nc1cccc(C#CC(C)(C)Cl)c1)NC(=O)c1ccc(Nc2nc(NC3(c4ccc(Cl)cc4)CC3)nc(OCC(F)(F)F)n2)cc1` [Compound 3600], under setting [2], the pEC50 is 8.00 to 11.00.
Take `COC(=O)[C@H](CCNC(=O)C(=O)Nc1cccc(-c2cccnc2)c1)NC(=O)c1ccc(Nc2nc(NC3(c4ccc(Cl)cc4)CC3)nc(OCC(F)(F)F)n2)cc1` [Compound 3604]: the pEC50 under setting [2] is 8.00 to 11.00.
Regarding `Cc1ccc(CNC(=O)C(=O)NCC[C@H](NC(=O)c2ccc(Nc3nc(NC4(c5ccc(Cl)cc5)CC4)nc(OCC(F)(F)F)n3)cc2)C(=O)O)cc1F` [Compound 1191], the pEC50 reads like this: under setting [4], 9.77; under setting [3], 8.00 to 11.00.
On to `CC(CNC(=O)C(=O)Nc1nccs1)CNC(=O)c1ccc(Nc2nc(NC3(c4ccc(Cl)cc4)CC3)nc(OCC(F)(F)F)n2)cc1` (stereo not shown) [Compound 3468], for which the pEC50 under setting [1] was 8.00 to 11.00.
Regarding `CN(CCCN(C)C(=O)c1ccc(Nc2nc(NC3(c4ccc(Cl)cc4)CC3)nc(OCC(F)(F)F)n2)cc1)C(=O)C(=O)NC1CCCCC1` [Compound 3429], under setting [1], the pEC50 was 8.00 to 11.00.
With `O=C(NCC[C@H](NC(=O)c1ccc(Nc2nc(NC3(c4ccc(Cl)cc4)CC3)nc(OCC(F)(F)F)n2)cc1)C(=O)O)C(=O)NCC1CCc2ccccc21` (stereo partly shown) [Compound 1345], under setting [3], the pEC50 was 8.00 to 11.00.
In the case of `COC(=O)[C@H](CCNC(=O)C(=O)Nc1ccc(Oc2ccc(F)cc2)cc1)NC(=O)c1ccc(Nc2nc(NC3(c4ccc(Cl)cc4)CC3)nc(OCC(F)(F)F)n2)cc1` [Compound 3301], the pEC50 under setting [1] was 8.00 to 11.00.
`COc1cccc(CCNC(=O)C(=O)NC[C@H](NC(=O)c2ccc(Nc3nc(NC4(c5ccc(Cl)cc5)CC4)nc(OCC(F)(F)F)n3)cc2)C(=O)O)c1` [Compound 1398]: the pEC50 is 8.66 under setting [4] and 8.00 to 11.00 under setting [3].
Consider `O=C(NCCCCNC(=O)c1ccc(Nc2nc(NC3(c4ccc(Cl)cc4)CC3)nc(OCC(F)(F)F)n2)cc1)C(=O)Nc1ccc(F)cc1F` [Compound 3397], for which the pEC50 (Huh-7, 48 h, HCV pseudoparticles (genotype 1a, H77C) in Huh7 cells, average of duplicate, luciferase 2 days after infection) was 10.09 and the pEC50 under setting [1] is 8.00 to 11.00.
For `COC(=O)[C@H](CNC(=O)C(=O)NCc1cccc(F)c1)NC(=O)c1ccc(Nc2nc(NC3(c4ccc(Cl)cc4)CC3)nc(OCC(F)(F)F)n2)cc1` [Compound 1131], the pEC50 under setting [3] was 8.00 to 11.00.
As to `COC(=O)[C@H](CNC(=O)C(=O)NC(C1CC1)C1CC1)NC(=O)c1ccc(Nc2nc(NC3(c4ccc(Cl)cc4)CC3)nc(OCC(F)(F)F)n2)cc1` [Compound 1055], the pEC50 reads like this: under setting [4], 8.62; under setting [3], 8.00 to 11.00.
Take `CN(CCCN(C)C(=O)c1ccc(Nc2nc(NC3(c4ccc(Cl)cc4)CC3)nc(OCC(F)(F)F)n2)cc1)C(=O)C(=O)N1CCc2ccccc2C1` [Compound 3433]: the pEC50 under setting [1] is 6.00 to 8.00.
On the same count and under the same terms, under `CC(C)(CNC(=O)C(=O)Nc1ccc(Cl)cc1Cl)CNC(=O)c1ccc(Nc2nc(NC3(c4ccc(Cl)cc4)CC3)nc(OCC(F)(F)F)n2)cc1` [Compound 3453] stands 8.00 to 11.00.
As to `Cn1nnnc1-c1cccc(NC(=O)C(=O)NCC[C@H](NC(=O)c2ccc(Nc3nc(NC4(c5ccc(Cl)cc5)CC4)nc(OCC(F)(F)F)n3)cc2)C(=O)O)c1` [Compound 3655], the pEC50 under setting [2] was 8.00 to 11.00.
Turning to `O=C(NC/C(=N/C(=O)c1ccc(Nc2nc(NC3(c4ccc(Cl)cc4)CC3)nc(OCC(F)(F)F)n2)cc1)C(=O)O)C(=O)Nc1ccc(NCc2ccccc2)cc1` [Compound 3158], the pEC50 under setting [1] was 8.00 to 11.00.
Consider `COCc1ccc(NC(=O)C(=O)NCC[C@H](NC(=O)c2ccc(Nc3nc(NC4(c5ccc(Cl)cc5)CC4)nc(OCC(F)(F)F)n3)cc2)C(=O)O)cc1` [Compound 3543], for which, under setting [1], the pEC50 was 8.00 to 11.00.
As to `Cc1ccc(CNC(=O)C(=O)NCC[C@H](NC(=O)c2ccc(Nc3nc(NC4(c5ccc(Cl)cc5)CC4)nc(OCC(F)(F)F)n3)cc2)C(=O)O)c(F)c1` [Compound 1188], the pEC50 under setting [3] is 8.00 to 11.00.
Regarding `CC(C)(CNC(=O)C(=O)N1CCOCC1)CNC(=O)c1ccc(Nc2nc(NC3(c4ccc(Cl)cc4)CC3)nc(OCC(F)(F)F)n2)cc1` [Compound 3381], the pEC50 under setting [1] was 8.00 to 11.00.
`Cc1csc(-c2cccc(NC(=O)C(=O)NC[C@H](NC(=O)c3ccc(Nc4nc(NC5(c6ccc(Cl)cc6)CC5)nc(OCC(F)(F)F)n4)cc3)C(=O)Cl)c2)n1` [Compound 3780]: under setting [2], the negative logarithm of the EC50 (pEC50) is 8.00 to 11.00.
